Patent US12343319B2, “Compositions and methods for treatment of diseases and disorders” (Atai Therapeutics Inc., priority 2023, dated 2025)

Tests used:
Male Sprague-Dawley rats [1] = assay: Rat forced swim test, immobility frequency; assay type: in vivo; settings: 10 mg/kg, i.p., once 24 hours prior to the swim test
Procedure: Male Sprague-Dawley rats were placed individually in clear acrylic swim chambers (40 cm height×20.3 cm diameter) filled to 16 cm for a 15-minute pre-swim session on day 1 and filled to 30 cm for a 5-minute swim test session 24 hours later. Rats (n=10 per treatment group) were administered compound 2-1 (3, 10, 30 mg/kg, i.p., 1 mL/kg, based on weight of the free base) or vehicle (40% (w/v) 2-HPBCD in water, i.p.) at 23.5, 16 and 0.5 hours prior to the swim test. The rapid-acting antidepressant, ketamine (10 mg/kg, i.p.), was included in the study as a positive control condition and injected once 24 hours prior to the swim test.

[2] = tested on: primary cortical rat neurons; assay: Synaptogenesis assay in primary cortical rat neurons; assay type: cell-based
Procedure: Pregnant rats for this study were purchased from a commercial breeder. Primary cortical neurons from E17/E18 rat pups were isolated and seeded in 96-well plates. Cells were treated with compound 2-2, FGF (Reference item) or vehicle. After incubation with the respective treatment, cortical neurons were stained for synapsin and tubulin using immunofluorescence.
Stained cells were imaged with the Cytation 5 Multimode reader. From each well, 9 images were taken at 10× magnification. Digital images from cortical neurons were analyzed for the following parameter using a software-supported automatic quantification method: Number of synapsin positive objects. Analysis was performed using Gen5 software. The experiment was run in n=10 technical replicates per condition. Vehicle control and FGF were included on each plate totaling n=20 technical replicates.
Primary cortical neurons were prepared from timed pregnant Spargue Dawley rats at E17/E18. Animals were sacrificed (see section 3.3.1) and embryos were dissected in Calcium and Magnesium free Hanks Balanced Salt Solution (CMF-HBSS) containing 15 mM HEPES and 10 mM NaHCO3, pH 7.2. Embryos were decapitated, skin and skull gently removed and hemispheres were separated. After removing meninges and brain stem, the cortices were isolated, chopped with a sterile razor blade in Chop solution (Hibernate-E without Calcium containing 2% B-27) and digested in 2 mg/mL papain (Worthington) dissolved in Hibernate-E without Calcium for 30 minutes (±5 min) at 30° C. The cortices of the embryos from the two rats were pooled and processed together.
Cortices were triturated for 10-15 times with a fire-polished silanized Pasteur pipette in Hibernate-E without Calcium containing 2% B-27, 0.01% DNaseI, 1 mg/mL BSA, and 1 mg/mL Ovomucoid Inhibitor. Undispersed pieces were allowed to settle by gravity for 3 min and the supernatant was centrifuged for 3 min at 228 g. […]
Cells were counted in a hemacytometer and seeded in nutrition medium on poly-D-lysine pre-coated 96-well plates at a density of 1.5×10^4 cells/well. […]

5-HT2A receptor [3] = target: T1, 5-HT2A receptor (Mus musculus, UniProt P35363); assay: 5-HT2A receptor binding in mouse frontal cortical tissue; settings: for Ki: Mean (Mouse), mouse frontal cortical tissue
T1 sequence (P35363 whole entry): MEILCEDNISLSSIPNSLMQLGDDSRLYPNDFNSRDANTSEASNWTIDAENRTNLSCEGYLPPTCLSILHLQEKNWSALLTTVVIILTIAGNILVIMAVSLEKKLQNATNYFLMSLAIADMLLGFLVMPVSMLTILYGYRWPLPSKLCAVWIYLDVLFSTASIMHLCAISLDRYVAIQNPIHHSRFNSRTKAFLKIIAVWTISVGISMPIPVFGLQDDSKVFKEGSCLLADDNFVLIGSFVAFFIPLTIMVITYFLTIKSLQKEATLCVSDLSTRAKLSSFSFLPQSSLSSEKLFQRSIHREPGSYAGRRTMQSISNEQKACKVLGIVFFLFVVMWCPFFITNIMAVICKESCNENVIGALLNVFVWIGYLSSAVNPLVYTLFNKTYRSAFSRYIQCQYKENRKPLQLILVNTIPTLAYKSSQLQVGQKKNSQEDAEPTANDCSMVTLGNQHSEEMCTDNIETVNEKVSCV

5-HT2A receptor [4] = target: T1, 5-HT2A receptor; parameters: endogenous in cells; host or cells: adult male C57BL/6J mice, in vivo; settings: i.p., same assay, Klein et al., 2021; cited from earlier work
Male WKY rats = assay: Sleep-wake behavior, EEG power, body temperature and locomotor activity in WKY rats; assay type: in vivo, rat; settings: over 6 hours post dose, WKY rats, IP
Procedure: Male WKY rats (n=7, 289-388 g at the start of dosing) were housed in groups of 2-3 animals per cage with standard housing conditions. For implantation of the EEG electrodes and radio transmitter, the animals were anesthetized with isoflurane (2-5% in oxygen at 11/min) throughout the procedure. The scalp, neck and right flank were cleared of hair using clippers and cleaned using diluted Hibitane (chlorhexidine, 50% (v/v) in water). A non-steroidal anti-inflammatory agent was administered (carprofen 5 mg/kg, s.c.) and the animals placed on a homeothermic blanket (37° C.) with the head fixed in a stereotaxic frame. Incisions were made in the scalp and neck, as well as in the right flank. Blunt dissection of the abdominal muscle was then made to gain access to the peritoneal cavity. A radio transmitter (HD-S02, Data Sciences International) was implanted in the peritoneal cavity and secured to the muscle wall with non-absorbable sutures. The wires of the transmitter were passed using a 19G needle through the muscle wall and then sub-dermally to the scalp to act as Electroencephalogram (EEG)/Electromyograph (EMG) electrodes. The scalp was cleared of connective tissue and two craniotomies were made with a trepanning drill (fronto-parietal coordinates; Bregma+2 mm anterior, midline+1.0 mm lateral and Lambda 0 mm, +1.5 mm lateral). The positive EEG electrode was attached to the anterior craniotomy and the negative EEG electrode to the posterior craniotomy. Both electrodes were secured in place using a suitable adhesive agent (cyanoacrylate gel, RS components). A second set of electrodes were sutured into the nuchal muscle to act as EMG electrodes. All incisions were closed using absorbable suture.
All animals were allowed to recover in a warm environment and given 5 ml of saline subcutaneously (s.c.). Animals were kept singly in the cage until the next day, then pair housed for the duration of post-surgical recovery (minimum 7 days). During the recovery period, the rats received 5 days of standard post-operative care with no further experimental procedures until the pre-operative body weight was regained. The animals were maintained on a 12/12 hour light dark cycle (08:00 am lights on) after the surgery. Home cages and post-operative cages contained bedding and nesting material, along with environmental enrichment such as wooden chew-sticks and plastic tunnels.
On test days, ˜60 minutes after lights-on, animals were placed in recording boxes similar to their home-cages, except that environmental enrichment was restricted to a large bundle of nesting and bedding material, to avoid interference with the telemeter signals. Then, data acquisition was initiated for confirmation of signal quality. EEG and EMG data were acquired using intraperitoneal HD-S02 transmitters (DSI, New Brighton, MN) and Spike2 software (CED). EEG and EMG signals were digitized 500 samples/second, amplified 1000× and bandpass filtered at 0.5-100 Hertz (Hz). After 60 minutes of habituation, each animal was briefly removed from its box and dosed via the intraperitoneal (i.p.) route in a volume of 2 mL/kg. Test conditions included saline vehicle, psilocybin (10 mg/kg) positive control, compound 2-1 at 3, 10 and 30 mg/kg and compound 2-2 at 10, 17 and 30 mg/kg. Doses were based on the molecular weight of the free bases. compound 2-1 and compound 2-2 dosing solutions were prepared in 40% (w/v) hydroxypropyl-beta-cyclodextrin. After dosing, animals were immediately put back into the recording boxes, the experimenter left the room, and recordings continued uninterrupted for 23 hours. At the end of the recording session, the transmitters were turned off and the animals were returned to their home cages. All animals received all treatment conditions in a pseudo randomized cross-over fashion with a minimum washout period of 7 days between doses.
All data was aligned to zero (the time of dosing), with epochs defined as non-overlapping 10-second time segments. […]

[5] = target: T2, 5-HT2A receptors in the mouse frontal cortex (Mus musculus, UniProt P35363); assay: Ex vivo 5-HT2A receptor occupancy ([3H]cimbi-36) in mouse frontal cortex; settings: mouse, 3 mg/kg IP, 15 minutes post dosing
T2 construct: Left frontal cortices from each animal were homogenized individually; from tissue
T2 sequence (P35363 whole entry): as above

Male Sprague-Dawley rats [6] = assay: 5-HT2A/2C/1A-mediated behaviors, locomotor activity and body temperature in rats; assay type: in vivo, rat; settings: 1 mg/kg SC
Procedure: Forty (40) male Sprague-Dawley rats were used as test subjects in this study. Animals were dosed with vehicle (IP), one of 3 doses of compound 2-2 (3 mg/kg, 10 mg/kg, 30 mg/kg IP) or psilocybin (1 mg/kg SC) and, following the appropriate pre-treatment time, were placed in locomotor activity boxes and continuously monitored for a 1 hr period with data collected into 10-minute time bins. Animals were visually assed for overt behavioral signs, including biomarkers for 5-HT2A receptor target engagement (i.e. wet dog shakes, back muscle contractions and stereotypic behaviors), 5-HT2C receptor activation (yawning, penile grooming), and 5-HT1A behaviors (forepaw treading, hindlimb abduction). Additional behavioral and somatic signs characteristic of 5-HT syndrome (i.e. tremor, salivation, flat body posture) also were measured. Core body temperature change was determined at 0 hr (pre-dose), 1 hr, and 2 hr. Simultaneously, the spontaneous locomotor activity of the rats was measured using automated Med Associates activity test chambers. Activity data collected included total distance travelled, rearing counts, and ambulatory episodes. LMA was measured for a total of 2 hours (i.e. the first hour to include visual assessments of behavioral signs, and the second hour the animals will not be assessed for behavioral signs) with data collected into 10 minute time bins. The tracking arena measured 17″ W×17″ L×12″ H, sensor bars were secured 1″ above the floor to track distance travelled, and a second set of sensor bars were placed ˜5″ above the floor to measure vertical movement and rearing activity. The parameters set on the tracking software were as follows: resolution −50 ms, box size −4 beams, resting delay −500 ms, and ambulatory trigger −3.
Table 14 outlines receptor activity and related behavioral and/or physiological measures.

Structure (SMILES): CNC1(c2ccccc2Cl)CCCCC1=O (stereo not drawn) [Ketamine, ketamine, reference compound]
- immobility compared to vehicle (Male Sprague-Dawley rats [1]): significantly decreased

Structure (SMILES): CN(C)CCc1c[nH]c2ccccc12 [N,N-DMT]
- synaptogenesis compared to VC (synapsin positive objects normalized to tubulin III area) ([2]; 1 μM (highest concentration), DIV1-DIV10): significant increase
- synaptogenesis compared to VC (synapsin positive objects normalized to tubulin III area) ([2]; lower concentrations (below 1 μM)): no significance

Structure (SMILES): CN(C)CCc1c[nH]c2cccc(O)c12 [Psilocin, psilocin]
- IC50 (5-HT2A receptor [3]): 99 nM
- Ki (5-HT2A receptor [3]; Ki): 45.1 nM
- Ki (5-HT2A receptor [3]; pKi): 45.7 nM
- HTR ED50 (5-HT2A receptor [4]): 0.17 mg/kg

Structure (SMILES): CN(C)CCc1c[nH]c2cccc(OP(=O)(O)O)c12 [Psilocybin, psilocybin, reference compound]
- body temperature (Male WKY rats): ↓(for 6 h)
- receptor occupancy at 3 mg/kg ([5]; read-out: % Receptor Occupancy (RO)): 19%
- remaining activity at 3 mg/kg ([5]; read-out: % of Control Binding): 81%
- distance travelled during the first 20 minutes of the 2 hour test (Male Sprague-Dawley rats [6]): decreased
- total locomotor activity measures (Male Sprague-Dawley rats [6]): did not affect
